Measurements published in paper PMC6748986, “Potent modulation of the CepR quorum sensing receptor and virulence in a Burkholderia cepacia complex member using non-native lactone ligands” (Scientific Reports, 2019).
Like-named read-outs stand apart in the source and are kept apart here.

Assays:
CepR [1] = target: T1, CepR (Burkholderia multivorans, UniProt Q93PF7); assay: CepR agonism in B. multivorans cepI::lacZ reporter (Bm-reporter); type: cell-based; settings: for activation at 100 µM: read-out: Act%; for Emax: read-out: Maximal Activation (%)
T1 sequence (Q93PF7 1-239): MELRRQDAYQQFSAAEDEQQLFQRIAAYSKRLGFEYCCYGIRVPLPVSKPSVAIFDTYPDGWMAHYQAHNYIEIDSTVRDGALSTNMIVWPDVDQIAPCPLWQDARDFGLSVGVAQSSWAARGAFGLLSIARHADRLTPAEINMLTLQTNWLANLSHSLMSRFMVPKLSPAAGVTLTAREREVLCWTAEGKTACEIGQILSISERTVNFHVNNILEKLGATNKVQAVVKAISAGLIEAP
Summary of the method: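 B. multivorans cepI::lacZ cells (1:10 dilution of overnight LB culture) grown 4 h at 37 °C with compound, then β-galactosidase read with CPRG on permeabilized cells at 25 °C for ~10 min. Agonism compared against 100 μM C8-AHL; antagonism run in the presence of 5 nM C8-AHL.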

LasR, RhlR, and QscR = assay: Comparison of activities in CepR vs. the three LuxR-type receptors in P. aeruginosa; settings: preliminary analyses; comparison with earlier data ref 22, 24, 59
Text: To close, the compounds identified herein constitute new chemical tools to study QS in Bcc species in a variety of contexts. Given the strong conservation of CepR between Bcc members, we hypothesize our compounds will maintain their activity profiles across Bcc member species and we can begin to use them to assess the role of CepI/CepR QS on a broader scale. […] A next step moving forward will be to gauge the selectivity of the ligands identified herein for CepR over other LuxR-type receptors. […] Such compounds could allow for the selective targeting of QS in one organism in a mixed culture over time and allow for insights into the potential for interspecies interactions via QS and their effects on host health outcomes. Ongoing studies are focused in this arena, along with further delineating the mechanisms by which our CepR ligands agonize and antagonize CepR, and will be reported in due course.

B. multivorans ATCC17616 = assay: Swarming motility assay (0.5% agar); type: cell-based; settings: 50 μM C8-AHL
Text: We were interested to assess the effects of our lead CepR modulators on a phenotype under the control of QS in B. multivorans. However, very little work has been reported to directly link CepR activity in B. multivorans to any QS-controlled phenotype. […] Therefore, we chose to study the effects of compound treatment on both the swarming and swimming motility of B. multivorans (B. multivorans ATCC17616; see Methods).
We then tested the ability of our non-native compounds to modulate swimming motility in B. multivorans.
Figure S4. Motility assays (A ) on 0.3% agar (i.e., to measure swimming) with th e B. multivorans parental and cepI::lacZ organisms, using +/- 50 μM C8-AHL and (B) on 0. 5 % ag a r (i.e . , t o measure swarming ) with the B. multivorans parental organism, using +/- 50 μ M C8-AHL. Se e main text for assay methods.
(1 picture or pasted object on this page, not shown here)

CepR [2] = target: T1, CepR; assay: CepR antagonism in B. multivorans cepI::lacZ reporter (Bm-reporter), competition against C8-AHL; type: cell-based
Text: We next sought to assess if the CepR modulators identified in the Ec-reporter maintained their activities in a member of the Bcc. For these studies, we generated a B. multivorans cepI::lacZ reporter organism (Bm-reporter) using standard allelic exchange methods (see Methods). Along with B. cenocepacia, B. multivorans is one of the most commonly isolated Bcc members[6],[44]. We note that small molecules must contend with a different cellular environment in the native organism relative to E. coli[48]; however, as both CepR and the cepI promoter are highly conserved among Bcc species (Fig. S3), we reasoned that the majority of compounds identified in the Ec-reporter (containing B. cenocepacia versions of the cepI promoter and the cepR gene) would maintain their relative activity profiles in CepR in B. multivorans. […] Similar to the Ec-reporter, CepR binding to the cepI promoter then induces β-galactosidase production, allowing for the quantitation of CepR activity. Using the Bm-reporter organism, we observed robust activity for CepR in response to C8-AHL (EC50 = 0.7 nM, Table 3).
The B. multivorans cepI::lacZ strain was used to obtain dose-response data for CepR in response to synthetic AHLs. Overnight cultures of B. multivorans cepI::lacZ were grown in LB medium at 37 °C with shaking (225 rpm). Aliquots (200 μL) of a 1:10 dilution of this overnight culture were plated into 96-well plates containing varying concentrations of compound, and then grown for 4 h at 37 °C with shaking (225 rpm). β-galactosidase production was measured as described above for E. coli, with the following changes: permeabilized cells were incubated at 25 °C with substrate CPRG for ~10 min until positive control wells developed a deep red color. For agonism assays, synthetic compound was screened alongside and compared to the native ligand, C8-AHL (100 μM). For antagonism assays, the concentration of native ligand utilized was 5 nM (approximately equal to twice its EC50 value).

[3] = Bm-reporter, against 5 nM C8-AHL

## O=C(CCc1ccc([N+](=O)[O-])cc1)N[C@H]1CCOC1=O [Compound E37]
CepR [1]
  EC50: 0.0025 nM
  activation at 100 µM: 91%
  Emax: 91%
CepR [1]; Bm-reporter
  EC50 fold lower than C8-AHL: ~ 250 fold
LasR, RhlR, and QscR
  Selectivity for CepR over LasR, RhlR, QscR: selective for CepR

## CCCCCC(O)CC(=O)N[C@H]1CCOC1=O (stereo partly shown) [3’OH-C8-AHL, reference compound]
CepR [1]; Bm-reporter, agonism dose-response, read-out: EC50
  EC50: ≥ 980 nM
CepR [1]; Bm-reporter, activity for 100 μM C8-AHL set to 100%, error ±10%
  Maximal Activation (%): 78%
CepR [1]; Table S4, Bm-reporter, screening conc. 100 μM
  Act%: 78%

## O=C(CCc1ccc(I)cc1)N[C@H]1CCOC1=O [Compound E32]
CepR [1]
  EC50: 0.08 nM
  activation at 100 µM: 110%
  Emax: 110%

## O=C(CCc1ccc(C(F)(F)F)cc1)N[C@H]1CCOC1=O [Compound E35]
CepR [1]
  EC50: 0.022 nM
  activation at 100 µM: 98%
  Emax: 98%

## CCCCCCCC(=O)N[C@H]1CCOC1=O [Compound C8-AHL, N-octanoyl L-homoserine lactone, reference compound]
B. multivorans ATCC17616
  Swarming motility upon addition of compound: not increased
CepR [1]
  EC50: 0.7 nM
  activation at 100 µM: 100%
  Emax: 100%

## CCCCCCCS(=O)(=O)N[C@H]1CCOC1=O [Compound A12]
CepR [2]
  IC50: 1700 nM
CepR [2]; [3]
  Maximal Inhibition (%): 82%
LasR, RhlR, and QscR
  Selectivity for CepR over LasR, RhlR, QscR: selective for CepR

## O=C(CC1CCCC1)N[C@H]1CCOC1=O [Compound B12]
CepR [2]
  IC50: 2100 nM
CepR [2]; [3]
  Maximal Inhibition (%): 83%

## O=C(Cc1cccc(C(F)(F)F)c1)N[C@H]1CCOC1=O [Compound E3]
CepR [2]
  IC50: 1900 nM
CepR [2]; Bm-reporter
  CepR antagonism in words: bring reporter activity down to nearly zero
CepR [2]; [3]
  Maximal Inhibition (%): 100%
CepR [1]
  activation at 100 µM: 3.1%
LasR, RhlR, and QscR
  Selectivity for CepR over LasR, RhlR, QscR: selective for CepR

## O=C(Cc1cccc(Br)c1)N[C@H]1CCOC1=O [Compound C8]
CepR [2]; Bm-reporter
  CepR antagonism in words: bring reporter activity down to nearly zero
CepR [2]; [3]
  Maximal Inhibition (%): 94%
CepR [2]; Bm-reporter, against 5 nM C8-AHL, read-out: IC50
  IC50: 2600 nM
